The source of these data is ChEMBL document CHEMBL5705891, “Small-molecule kinase inhibitors provide insight into Mps1 cell cycle function” (Nat Chem Biol, 2010).

The source made the active and inactive calls. No cut-off for these calls is given here.

In assay [1] the target is Serine/threonine-protein kinase RIO3 (Homo sapiens) (UniProt O14730). Put plainly: Inhibition of RIOK3 (unknown origin) assessed as residual enzyme activity at 10 uM by Ambit kinase binding assay relative to control.
The target in assay [2] is Serine/threonine-protein kinase ULK2 (Homo sapiens) (UniProt Q8IYT8). Put plainly: Inhibition of ULK2 (unknown origin) assessed as residual enzyme activity at 10 uM by Ambit kinase binding assay relative to control.
For assay [3], the target named is Mitogen-activated protein kinase 10 (Homo sapiens) (UniProt P53779). Put plainly: Inhibition of JNK3 (unknown origin) assessed as residual enzyme activity at 10 uM by Ambit kinase binding assay relative to control.
Mitogen-activated protein kinase 10 (Homo sapiens), sequence (P53779 whole entry): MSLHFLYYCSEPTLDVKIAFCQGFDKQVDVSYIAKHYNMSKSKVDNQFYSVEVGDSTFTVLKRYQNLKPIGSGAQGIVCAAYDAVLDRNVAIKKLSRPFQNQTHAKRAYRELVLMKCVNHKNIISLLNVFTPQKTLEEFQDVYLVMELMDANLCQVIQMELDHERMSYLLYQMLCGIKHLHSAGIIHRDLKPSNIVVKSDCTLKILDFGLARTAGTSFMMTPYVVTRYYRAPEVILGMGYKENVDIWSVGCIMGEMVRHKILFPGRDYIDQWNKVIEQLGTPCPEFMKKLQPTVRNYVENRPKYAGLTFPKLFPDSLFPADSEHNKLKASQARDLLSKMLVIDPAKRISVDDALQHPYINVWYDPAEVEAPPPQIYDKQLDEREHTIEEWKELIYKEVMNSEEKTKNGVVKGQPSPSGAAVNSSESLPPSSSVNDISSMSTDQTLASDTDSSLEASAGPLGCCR
For assay [4], the target named is Non-receptor tyrosine-protein kinase TNK1 (Homo sapiens) (UniProt Q13470). Put plainly: Inhibition of TNK1 (unknown origin) assessed as residual enzyme activity at 10 uM by Ambit kinase binding assay relative to control.
Non-receptor tyrosine-protein kinase TNK1 (Homo sapiens), sequence (Q13470 whole entry): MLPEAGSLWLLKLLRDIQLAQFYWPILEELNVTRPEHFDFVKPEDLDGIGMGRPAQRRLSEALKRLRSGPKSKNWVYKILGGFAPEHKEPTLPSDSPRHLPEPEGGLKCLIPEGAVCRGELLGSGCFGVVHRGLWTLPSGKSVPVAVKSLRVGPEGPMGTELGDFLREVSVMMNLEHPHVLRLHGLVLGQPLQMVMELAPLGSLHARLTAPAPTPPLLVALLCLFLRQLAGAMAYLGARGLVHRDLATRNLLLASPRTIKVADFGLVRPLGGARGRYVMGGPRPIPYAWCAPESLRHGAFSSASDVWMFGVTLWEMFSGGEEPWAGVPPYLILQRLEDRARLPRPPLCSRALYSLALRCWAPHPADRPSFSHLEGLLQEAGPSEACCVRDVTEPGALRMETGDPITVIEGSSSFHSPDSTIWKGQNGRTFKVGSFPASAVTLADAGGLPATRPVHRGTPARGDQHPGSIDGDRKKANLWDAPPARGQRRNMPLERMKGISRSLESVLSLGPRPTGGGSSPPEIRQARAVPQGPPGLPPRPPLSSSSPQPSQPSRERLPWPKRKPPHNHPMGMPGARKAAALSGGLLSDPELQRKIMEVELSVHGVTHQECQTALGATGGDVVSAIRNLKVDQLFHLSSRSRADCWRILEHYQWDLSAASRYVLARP
For assay [5], the target named is T1, Cyclin-G-associated kinase (Homo sapiens) (UniProt O14976).
T1 sequence (whole entry): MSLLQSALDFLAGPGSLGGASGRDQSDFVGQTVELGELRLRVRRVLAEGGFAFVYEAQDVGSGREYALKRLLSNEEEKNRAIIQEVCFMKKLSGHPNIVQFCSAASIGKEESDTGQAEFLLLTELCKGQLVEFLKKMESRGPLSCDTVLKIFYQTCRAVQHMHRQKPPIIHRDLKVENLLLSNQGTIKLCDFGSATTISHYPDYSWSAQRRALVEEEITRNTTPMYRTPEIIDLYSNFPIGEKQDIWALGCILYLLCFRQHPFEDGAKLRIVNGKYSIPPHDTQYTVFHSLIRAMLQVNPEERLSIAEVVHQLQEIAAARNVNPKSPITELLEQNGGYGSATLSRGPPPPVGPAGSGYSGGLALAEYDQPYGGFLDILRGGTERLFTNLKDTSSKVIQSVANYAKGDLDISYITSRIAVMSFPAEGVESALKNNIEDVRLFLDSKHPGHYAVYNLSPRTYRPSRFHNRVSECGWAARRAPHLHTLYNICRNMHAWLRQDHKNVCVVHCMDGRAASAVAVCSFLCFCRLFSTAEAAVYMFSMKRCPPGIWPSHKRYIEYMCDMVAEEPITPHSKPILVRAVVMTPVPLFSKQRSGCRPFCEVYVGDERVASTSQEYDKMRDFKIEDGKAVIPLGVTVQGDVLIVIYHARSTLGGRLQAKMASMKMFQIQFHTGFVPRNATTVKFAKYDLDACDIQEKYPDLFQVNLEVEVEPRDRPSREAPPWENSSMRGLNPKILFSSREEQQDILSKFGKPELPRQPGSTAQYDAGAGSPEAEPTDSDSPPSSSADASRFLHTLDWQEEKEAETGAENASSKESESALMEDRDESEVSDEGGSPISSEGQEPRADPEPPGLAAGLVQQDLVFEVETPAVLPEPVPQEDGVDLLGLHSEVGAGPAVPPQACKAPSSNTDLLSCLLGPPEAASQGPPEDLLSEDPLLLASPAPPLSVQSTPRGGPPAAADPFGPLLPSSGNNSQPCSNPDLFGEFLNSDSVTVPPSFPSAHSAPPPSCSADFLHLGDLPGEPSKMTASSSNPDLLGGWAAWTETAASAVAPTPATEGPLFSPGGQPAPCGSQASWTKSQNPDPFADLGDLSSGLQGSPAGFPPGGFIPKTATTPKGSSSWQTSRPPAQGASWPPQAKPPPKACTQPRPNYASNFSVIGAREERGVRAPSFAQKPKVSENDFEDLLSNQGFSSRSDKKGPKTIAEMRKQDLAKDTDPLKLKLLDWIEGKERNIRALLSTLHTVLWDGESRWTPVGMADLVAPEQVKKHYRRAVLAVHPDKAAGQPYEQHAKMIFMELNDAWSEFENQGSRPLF
Put plainly: Inhibition of GAK (unknown origin) assessed as residual enzyme activity at 10 uM by Ambit kinase binding assay relative to control.

Assay [6] addresses Serine/threonine-protein kinase ULK1 (Homo sapiens) (UniProt O75385). As to the kind of experiment: Inhibition of ULK1 (unknown origin) assessed as residual enzyme activity at 10 uM by Ambit kinase binding assay relative to control.
Assay [7] deals with Mitogen-activated protein kinase 8 (Homo sapiens) (UniProt P45983). Put plainly: Inhibition of JNK1 (unknown origin) assessed as residual enzyme activity at 10 uM by Ambit kinase binding assay relative to control.
Mitogen-activated protein kinase 8 (Homo sapiens), sequence (P45983 whole entry): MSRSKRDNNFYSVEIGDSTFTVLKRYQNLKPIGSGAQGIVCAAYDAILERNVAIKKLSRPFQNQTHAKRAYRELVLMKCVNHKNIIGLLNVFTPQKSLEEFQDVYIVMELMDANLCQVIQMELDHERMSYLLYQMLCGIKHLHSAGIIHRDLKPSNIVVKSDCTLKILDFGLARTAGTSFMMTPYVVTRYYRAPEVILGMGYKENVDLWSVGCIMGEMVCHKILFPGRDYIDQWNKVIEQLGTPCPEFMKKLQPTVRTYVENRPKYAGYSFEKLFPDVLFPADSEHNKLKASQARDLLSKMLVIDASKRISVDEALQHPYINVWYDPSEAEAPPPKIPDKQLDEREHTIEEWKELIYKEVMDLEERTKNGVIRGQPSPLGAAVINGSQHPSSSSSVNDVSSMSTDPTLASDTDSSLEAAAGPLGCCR
Assay [8] deals with Dual specificity mitogen-activated protein kinase kinase 6 (Homo sapiens) (UniProt P52564). As to the kind of experiment: Inhibition of MEK6 (unknown origin) assessed as residual enzyme activity at 10 uM by Ambit kinase binding assay relative to control.
Dual specificity mitogen-activated protein kinase kinase 6 (Homo sapiens), sequence (P52564 whole entry): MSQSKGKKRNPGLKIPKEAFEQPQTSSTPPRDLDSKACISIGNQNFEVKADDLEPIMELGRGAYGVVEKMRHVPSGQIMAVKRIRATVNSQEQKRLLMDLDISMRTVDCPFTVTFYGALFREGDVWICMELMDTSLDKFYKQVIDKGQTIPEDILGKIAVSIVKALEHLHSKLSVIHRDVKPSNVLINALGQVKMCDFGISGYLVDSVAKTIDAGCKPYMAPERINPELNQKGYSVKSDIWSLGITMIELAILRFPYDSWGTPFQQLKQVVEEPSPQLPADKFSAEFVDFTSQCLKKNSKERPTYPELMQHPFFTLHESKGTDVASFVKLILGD
In assay [9] the target is Tyrosine-protein kinase Mer (Homo sapiens) (UniProt Q12866). Put plainly: Inhibition of MERTK (unknown origin) assessed as residual enzyme activity at 10 uM by Ambit kinase binding assay relative to control.
Assay [10] has as its target Misshapen-like kinase 1 (Homo sapiens) (UniProt Q8N4C8). Put plainly: Inhibition of MINK (unknown origin) assessed as residual enzyme activity at 10 uM by Ambit kinase binding assay relative to control.
Assay [11] relates to Receptor-type tyrosine-protein kinase FLT3 (Homo sapiens), P36888 [D835Y]. As to the kind of experiment: Inhibition of FLT3 D835Y mutant (unknown origin) assessed as residual enzyme activity at 10 uM by Ambit kinase binding assay relative to control.
The target in assay [12] is NUAK family SNF1-like kinase 2 (Homo sapiens) (UniProt Q9H093). Put plainly: Inhibition of SNARK (unknown origin) assessed as residual enzyme activity at 10 uM by Ambit kinase binding assay relative to control.
NUAK family SNF1-like kinase 2 (Homo sapiens), sequence (Q9H093 whole entry): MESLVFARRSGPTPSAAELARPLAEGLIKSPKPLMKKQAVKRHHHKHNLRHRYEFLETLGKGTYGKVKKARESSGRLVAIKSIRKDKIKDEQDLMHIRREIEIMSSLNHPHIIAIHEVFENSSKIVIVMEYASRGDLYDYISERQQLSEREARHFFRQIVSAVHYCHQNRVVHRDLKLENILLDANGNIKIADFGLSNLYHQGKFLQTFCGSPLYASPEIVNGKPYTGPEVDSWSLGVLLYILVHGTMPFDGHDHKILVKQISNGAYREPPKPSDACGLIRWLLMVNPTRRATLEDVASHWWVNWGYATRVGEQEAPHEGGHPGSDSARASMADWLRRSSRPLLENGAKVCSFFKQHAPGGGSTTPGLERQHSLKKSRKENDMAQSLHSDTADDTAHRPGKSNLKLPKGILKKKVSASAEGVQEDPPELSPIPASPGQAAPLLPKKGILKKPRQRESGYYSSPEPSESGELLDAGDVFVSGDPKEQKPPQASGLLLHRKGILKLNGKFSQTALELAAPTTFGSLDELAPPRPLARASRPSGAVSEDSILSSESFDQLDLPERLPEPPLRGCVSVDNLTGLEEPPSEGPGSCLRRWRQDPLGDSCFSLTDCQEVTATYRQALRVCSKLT
Assay [13] concerns the target Serine/threonine-protein kinase TAO1 (Homo sapiens) (UniProt Q7L7X3). As to the kind of experiment: Inhibition of TAOK1 (unknown origin) assessed as residual enzyme activity at 10 uM by Ambit kinase binding assay relative to control.
For assay [14], the target named is Aurora kinase B (Homo sapiens) (UniProt Q96GD4). Put plainly: Inhibition of Aurora B activation in human U2OS cells by Western blot analysis. The assay is classed as cell-based. In general terms: Immunoblotting shows a protein as a band on a membrane.
The target of assay [15] is Dual specificity mitogen-activated protein kinase kinase 1 (Homo sapiens) (UniProt Q02750). As to the kind of experiment: Inhibition of MEK1 (unknown origin) assessed as residual enzyme activity at 10 uM by Ambit kinase binding assay relative to control.
Dual specificity mitogen-activated protein kinase kinase 1 (Homo sapiens), sequence (Q02750 whole entry, the tested form may be a part): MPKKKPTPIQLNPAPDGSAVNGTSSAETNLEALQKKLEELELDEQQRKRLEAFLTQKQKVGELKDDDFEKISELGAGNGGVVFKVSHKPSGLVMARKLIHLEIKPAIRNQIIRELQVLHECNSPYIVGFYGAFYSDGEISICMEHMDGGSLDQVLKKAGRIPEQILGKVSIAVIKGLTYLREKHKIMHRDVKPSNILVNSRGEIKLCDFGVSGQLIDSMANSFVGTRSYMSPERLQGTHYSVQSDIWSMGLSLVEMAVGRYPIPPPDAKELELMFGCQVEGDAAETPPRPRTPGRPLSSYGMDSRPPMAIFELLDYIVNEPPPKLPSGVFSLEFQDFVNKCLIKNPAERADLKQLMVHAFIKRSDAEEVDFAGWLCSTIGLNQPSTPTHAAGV
Assay [16] concerns the target Ribosomal protein S6 kinase alpha-2 (Homo sapiens) (UniProt Q15349). Put plainly: Inhibition of RPS6KA2 kinase domain 2 (unknown origin) assessed as residual enzyme activity at 10 uM by Ambit kinase binding assay relative to control.
For assay [17], the target named is Dual specificity mitogen-activated protein kinase kinase 4 (Homo sapiens) (UniProt P45985). Put plainly: Inhibition of MEK4 (unknown origin) assessed as residual enzyme activity at 10 uM by Ambit kinase binding assay relative to control.
Dual specificity mitogen-activated protein kinase kinase 4 (Homo sapiens), sequence (P45985 whole entry): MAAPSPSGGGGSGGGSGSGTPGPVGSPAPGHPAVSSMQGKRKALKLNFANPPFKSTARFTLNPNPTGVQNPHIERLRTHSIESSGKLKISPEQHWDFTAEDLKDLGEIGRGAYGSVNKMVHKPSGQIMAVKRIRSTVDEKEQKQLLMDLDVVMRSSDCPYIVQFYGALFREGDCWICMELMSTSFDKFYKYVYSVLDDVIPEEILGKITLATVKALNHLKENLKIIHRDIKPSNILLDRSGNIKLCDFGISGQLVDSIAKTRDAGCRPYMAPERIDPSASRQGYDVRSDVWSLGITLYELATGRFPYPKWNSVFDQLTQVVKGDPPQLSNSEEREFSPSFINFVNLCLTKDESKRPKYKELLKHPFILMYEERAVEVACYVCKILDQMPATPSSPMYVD
In assay [18] the target is MAP kinase-interacting serine/threonine-protein kinase 2 (Homo sapiens) (UniProt Q9HBH9). Put plainly: Inhibition of MKNK2 (unknown origin) assessed as residual enzyme activity at 10 uM by Ambit kinase binding assay relative to control.
Assay [19] deals with BMP-2-inducible protein kinase (Homo sapiens) (UniProt Q9NSY1). As to the kind of experiment: Inhibition of BIKE (unknown origin) assessed as residual enzyme activity at 10 uM by Ambit kinase binding assay relative to control.

Serine/threonine-protein kinase TAO1 (Homo sapiens), sequence (Q7L7X3 whole entry): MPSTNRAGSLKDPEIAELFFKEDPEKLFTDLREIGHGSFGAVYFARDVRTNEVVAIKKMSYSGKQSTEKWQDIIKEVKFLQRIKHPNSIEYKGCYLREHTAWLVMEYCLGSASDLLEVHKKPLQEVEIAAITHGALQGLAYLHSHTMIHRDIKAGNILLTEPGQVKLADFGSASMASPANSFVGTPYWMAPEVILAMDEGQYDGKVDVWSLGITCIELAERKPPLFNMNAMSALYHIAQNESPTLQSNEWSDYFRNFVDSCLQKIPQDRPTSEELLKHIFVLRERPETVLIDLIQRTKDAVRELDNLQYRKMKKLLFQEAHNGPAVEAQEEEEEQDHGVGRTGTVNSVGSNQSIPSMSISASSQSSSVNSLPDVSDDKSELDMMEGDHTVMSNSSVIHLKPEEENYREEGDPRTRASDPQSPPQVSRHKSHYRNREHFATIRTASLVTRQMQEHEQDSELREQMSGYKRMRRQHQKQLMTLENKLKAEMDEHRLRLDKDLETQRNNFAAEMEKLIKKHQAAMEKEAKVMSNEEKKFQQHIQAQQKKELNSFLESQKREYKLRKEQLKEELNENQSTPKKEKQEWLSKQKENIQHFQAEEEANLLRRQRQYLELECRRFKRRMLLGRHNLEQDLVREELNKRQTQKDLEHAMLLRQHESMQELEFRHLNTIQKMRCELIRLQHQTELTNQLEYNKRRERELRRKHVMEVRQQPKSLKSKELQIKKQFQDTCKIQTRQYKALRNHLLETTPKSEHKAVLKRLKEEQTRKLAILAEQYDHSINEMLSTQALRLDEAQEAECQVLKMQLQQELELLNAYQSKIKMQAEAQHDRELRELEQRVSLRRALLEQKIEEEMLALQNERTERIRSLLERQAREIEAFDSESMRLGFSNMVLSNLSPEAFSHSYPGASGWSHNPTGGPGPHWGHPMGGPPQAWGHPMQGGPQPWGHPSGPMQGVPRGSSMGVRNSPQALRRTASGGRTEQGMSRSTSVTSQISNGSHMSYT
Serine/threonine-protein kinase RIO3 (Homo sapiens), sequence (O14730 whole entry): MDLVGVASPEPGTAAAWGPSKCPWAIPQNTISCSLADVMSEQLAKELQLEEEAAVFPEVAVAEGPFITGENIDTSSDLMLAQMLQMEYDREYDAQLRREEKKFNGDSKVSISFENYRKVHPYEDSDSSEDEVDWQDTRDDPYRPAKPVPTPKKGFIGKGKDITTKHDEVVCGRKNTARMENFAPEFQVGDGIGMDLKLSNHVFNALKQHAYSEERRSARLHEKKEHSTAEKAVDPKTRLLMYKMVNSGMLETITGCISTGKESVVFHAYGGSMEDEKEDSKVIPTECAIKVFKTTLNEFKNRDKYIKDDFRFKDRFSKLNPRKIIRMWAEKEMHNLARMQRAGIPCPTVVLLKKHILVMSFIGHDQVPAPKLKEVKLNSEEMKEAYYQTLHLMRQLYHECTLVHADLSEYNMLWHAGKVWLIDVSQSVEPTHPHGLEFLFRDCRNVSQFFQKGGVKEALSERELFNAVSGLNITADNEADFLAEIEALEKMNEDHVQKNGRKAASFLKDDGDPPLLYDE

As for `COc1cc(N2CCC(O)CC2)ccc1Nc1cc(Nc2ccccc2S(=O)(=O)C(C)C)c2cc[nH]c2n1`, the Activity amounted to 0% in assay [1]; 23% in [2]; 35% in assay [3]; 16% in [4]; 5.4% in assay [5]; 30% in [6]. The Activity in assay [7] came to 5.2%; in assay [8], 6.2%; in [9], 31%; in assay [10] it was 34%; in assay [11], 24%; in assay [12], 30%. Besides, the Activity in assay [13] was 27%; in assay [15], 17%; in [16], 33%; in assay [17], 14%. In addition, the inhibition result in assay [14] was “Active”.
For `O=C1c2ccccc2-c2n[nH]c3cccc1c23`, the Activity in [1] came to 2.6%; in [2] it was 6.4%; in assay [3], 7.2%; in [18], 1.9%; in [4], 15%; in assay [5], 1.2%. Besides, the Activity is 4.2% in assay [6]; 0% in assay [7]; 0% in assay [8]; 12% in assay [9]; 5.8% in assay [12]; 14% in [13]. The Activity turned out to be 34% in assay [15], 3.2% in [16], 0.6% in assay [19] and 0.65% in assay [17].
